From ChEMBL document CHEMBL4507318, “Data for DCP probe BAY-985” (2021)

Tests used:
[1] = target: Serine/threonine-protein kinase mTOR (Homo sapiens) (UniProt P42345)
[2] = target: Kappa-type opioid receptor (Homo sapiens) (UniProt P41145); settings: Compound concentration 10.0 uM
[3] = target: Receptor tyrosine-protein kinase erbB-3 (Homo sapiens) (UniProt P21860)
[4] = test system: Mast/stem cell growth factor receptor Kit (Homo sapiens), P10721 [V559D]
[5] = target: Serine/threonine-protein kinase MRCK beta (Homo sapiens) (UniProt Q9Y5S2)
[6] = target: Muscle, skeletal receptor tyrosine-protein kinase (Homo sapiens) (UniProt O15146)
Muscle, skeletal receptor tyrosine-protein kinase (Homo sapiens), sequence (O15146 whole entry): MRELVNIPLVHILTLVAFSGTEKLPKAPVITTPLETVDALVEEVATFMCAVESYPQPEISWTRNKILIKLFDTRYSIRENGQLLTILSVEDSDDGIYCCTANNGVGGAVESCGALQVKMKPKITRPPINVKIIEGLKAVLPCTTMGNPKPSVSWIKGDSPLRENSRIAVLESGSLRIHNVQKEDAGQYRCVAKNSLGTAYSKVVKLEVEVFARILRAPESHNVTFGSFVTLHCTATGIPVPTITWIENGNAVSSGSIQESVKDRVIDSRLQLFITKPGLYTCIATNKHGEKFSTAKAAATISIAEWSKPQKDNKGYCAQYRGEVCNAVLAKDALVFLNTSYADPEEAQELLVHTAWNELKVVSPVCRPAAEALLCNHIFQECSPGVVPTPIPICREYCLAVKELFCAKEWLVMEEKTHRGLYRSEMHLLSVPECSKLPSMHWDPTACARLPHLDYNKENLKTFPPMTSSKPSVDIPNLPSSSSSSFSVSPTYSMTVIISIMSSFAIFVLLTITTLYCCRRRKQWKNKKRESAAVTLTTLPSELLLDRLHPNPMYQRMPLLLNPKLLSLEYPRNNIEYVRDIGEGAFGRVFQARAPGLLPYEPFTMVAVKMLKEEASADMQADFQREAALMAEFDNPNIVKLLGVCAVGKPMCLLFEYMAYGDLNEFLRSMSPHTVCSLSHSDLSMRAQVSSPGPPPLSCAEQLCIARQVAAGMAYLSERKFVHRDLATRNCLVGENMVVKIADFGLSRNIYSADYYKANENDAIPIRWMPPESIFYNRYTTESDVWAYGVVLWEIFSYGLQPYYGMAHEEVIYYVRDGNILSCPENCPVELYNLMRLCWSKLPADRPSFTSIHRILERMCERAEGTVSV

[7] = target: Serine/threonine-protein kinase 4 (Homo sapiens) (UniProt Q13043)
[8] = target: Serine/threonine-protein kinase PLK3 (Homo sapiens) (UniProt Q9H4B4)
[9] = target: Cyclin-dependent kinase 2 homolog (Plasmodium falciparum (isolate 3D7)) (UniProt P61075)
[10] = test system: Epidermal growth factor receptor (Homo sapiens), P00533 [L858R]
[11] = target: Hormonally up-regulated neu tumor-associated kinase (Homo sapiens) (UniProt P57058)
[12] = target: Serine/threonine-protein kinase MARK1 (Homo sapiens) (UniProt Q9P0L2)
[13] = target: Interleukin-1 receptor-associated kinase 1 (Homo sapiens) (UniProt P51617)
[14] = target: Beta-1 adrenergic receptor (Homo sapiens) (UniProt P08588); settings: Compound concentration 10.0 uM
[15] = target: Casein kinase I isoform gamma-2 (Homo sapiens) (UniProt P78368)
[16] = target: Activin receptor type-1B (Homo sapiens) (UniProt P36896)
[17] = target: Mitogen-activated protein kinase 6 (Homo sapiens) (UniProt Q16659)
[18] = target: Vascular endothelial growth factor receptor 1 (Homo sapiens) (UniProt P17948)
[19] = target: Ephrin type-A receptor 8 (Homo sapiens) (UniProt P29322)
[20] = target: Serine/threonine-protein kinase MAK (Homo sapiens) (UniProt P20794)
[21] = target: Discoidin domain-containing receptor 2 (Homo sapiens) (UniProt Q16832)
[22] = target: Serine/threonine-protein kinase RIO2 (Homo sapiens) (UniProt Q9BVS4)
[23] = target: Cyclin-dependent kinase-like 5 (Homo sapiens) (UniProt O76039)
Cyclin-dependent kinase-like 5 (Homo sapiens), sequence (O76039 whole entry): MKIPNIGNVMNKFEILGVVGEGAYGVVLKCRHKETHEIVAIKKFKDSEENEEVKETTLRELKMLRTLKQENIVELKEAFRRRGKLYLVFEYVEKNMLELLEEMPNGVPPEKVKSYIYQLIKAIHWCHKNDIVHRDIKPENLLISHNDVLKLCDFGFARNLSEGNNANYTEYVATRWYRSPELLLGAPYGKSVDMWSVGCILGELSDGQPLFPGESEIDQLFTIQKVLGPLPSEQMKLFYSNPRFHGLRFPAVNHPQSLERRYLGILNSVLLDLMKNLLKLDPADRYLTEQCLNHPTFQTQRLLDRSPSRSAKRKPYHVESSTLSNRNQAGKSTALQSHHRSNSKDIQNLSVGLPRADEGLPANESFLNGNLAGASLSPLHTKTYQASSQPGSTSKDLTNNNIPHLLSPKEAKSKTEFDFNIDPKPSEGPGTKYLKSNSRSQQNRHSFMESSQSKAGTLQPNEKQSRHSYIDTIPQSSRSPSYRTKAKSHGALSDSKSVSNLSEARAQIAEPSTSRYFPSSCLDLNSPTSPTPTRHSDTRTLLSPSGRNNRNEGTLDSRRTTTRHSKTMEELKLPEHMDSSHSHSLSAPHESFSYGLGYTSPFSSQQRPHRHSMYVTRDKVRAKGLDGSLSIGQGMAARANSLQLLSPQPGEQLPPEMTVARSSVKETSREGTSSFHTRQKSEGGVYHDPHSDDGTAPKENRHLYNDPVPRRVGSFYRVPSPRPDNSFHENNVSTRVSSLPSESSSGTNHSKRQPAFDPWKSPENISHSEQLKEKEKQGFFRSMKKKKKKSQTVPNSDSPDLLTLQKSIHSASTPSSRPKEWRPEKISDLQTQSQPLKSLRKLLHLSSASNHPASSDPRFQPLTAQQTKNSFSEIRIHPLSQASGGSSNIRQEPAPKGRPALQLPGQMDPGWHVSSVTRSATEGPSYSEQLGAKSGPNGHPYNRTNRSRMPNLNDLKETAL

[24] = target: Inhibitor of nuclear factor kappa-B kinase subunit epsilon (Homo sapiens) (UniProt Q14164)
[25] = target: Dual specificity protein kinase CLK4 (Homo sapiens) (UniProt Q9HAZ1)
[26] = target: Calcium/calmodulin-dependent protein kinase type II subunit gamma (Homo sapiens) (UniProt Q13555)
[27] = target: Mitogen-activated protein kinase 11 (Homo sapiens) (UniProt Q15759)
[28] = target: Serine/threonine-protein kinase 17A (Homo sapiens) (UniProt Q9UEE5)
[29] = target: Serine/threonine-protein kinase NLK (Homo sapiens) (UniProt Q9UBE8)
Serine/threonine-protein kinase NLK (Homo sapiens), sequence (Q9UBE8 whole entry): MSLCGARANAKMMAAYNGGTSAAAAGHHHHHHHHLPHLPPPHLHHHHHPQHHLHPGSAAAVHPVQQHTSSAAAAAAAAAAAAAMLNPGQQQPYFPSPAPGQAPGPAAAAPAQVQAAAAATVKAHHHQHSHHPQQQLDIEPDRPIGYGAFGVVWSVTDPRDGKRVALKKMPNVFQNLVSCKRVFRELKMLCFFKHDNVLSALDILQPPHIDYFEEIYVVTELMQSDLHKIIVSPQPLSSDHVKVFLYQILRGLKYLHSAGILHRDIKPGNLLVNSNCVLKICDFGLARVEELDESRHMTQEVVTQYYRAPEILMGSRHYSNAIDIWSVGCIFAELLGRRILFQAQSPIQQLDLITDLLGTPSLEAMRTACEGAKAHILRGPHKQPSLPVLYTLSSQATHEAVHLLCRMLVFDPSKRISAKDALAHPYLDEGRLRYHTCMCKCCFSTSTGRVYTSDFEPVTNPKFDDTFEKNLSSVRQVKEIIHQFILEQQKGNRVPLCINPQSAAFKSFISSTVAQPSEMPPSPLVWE

[30] = target: Mitogen-activated protein kinase kinase kinase 14 (Homo sapiens) (UniProt Q99558)
Mitogen-activated protein kinase kinase kinase 14 (Homo sapiens), sequence (Q99558 whole entry, looked up): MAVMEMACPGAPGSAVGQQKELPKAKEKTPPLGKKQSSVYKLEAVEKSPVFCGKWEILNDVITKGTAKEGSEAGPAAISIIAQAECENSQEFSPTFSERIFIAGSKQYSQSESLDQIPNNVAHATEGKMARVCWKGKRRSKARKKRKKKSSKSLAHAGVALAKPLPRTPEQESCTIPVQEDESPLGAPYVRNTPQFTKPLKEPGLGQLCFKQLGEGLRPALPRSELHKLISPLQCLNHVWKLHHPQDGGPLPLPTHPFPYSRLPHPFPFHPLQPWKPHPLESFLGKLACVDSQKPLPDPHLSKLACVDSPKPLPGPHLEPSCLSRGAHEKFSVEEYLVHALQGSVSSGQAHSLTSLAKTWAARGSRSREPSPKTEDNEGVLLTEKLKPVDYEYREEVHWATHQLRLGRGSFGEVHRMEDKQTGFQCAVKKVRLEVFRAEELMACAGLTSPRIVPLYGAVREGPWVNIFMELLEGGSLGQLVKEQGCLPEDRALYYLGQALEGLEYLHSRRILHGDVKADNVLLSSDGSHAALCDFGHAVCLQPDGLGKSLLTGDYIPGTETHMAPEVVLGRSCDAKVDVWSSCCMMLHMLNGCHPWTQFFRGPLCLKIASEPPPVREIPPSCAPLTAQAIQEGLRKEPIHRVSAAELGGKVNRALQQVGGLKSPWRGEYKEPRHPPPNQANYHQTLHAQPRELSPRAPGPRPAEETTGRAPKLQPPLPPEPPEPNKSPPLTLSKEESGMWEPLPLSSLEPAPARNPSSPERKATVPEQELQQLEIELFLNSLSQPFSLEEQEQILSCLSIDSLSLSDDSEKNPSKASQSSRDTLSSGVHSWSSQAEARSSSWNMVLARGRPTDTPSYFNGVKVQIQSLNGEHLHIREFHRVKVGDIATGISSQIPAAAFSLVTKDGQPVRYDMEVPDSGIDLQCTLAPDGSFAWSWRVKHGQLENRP

[31] = target: Glycogen synthase kinase-3 alpha (Homo sapiens) (UniProt P49840)
[32] = target: Calcium/calmodulin-dependent protein kinase type IV (Homo sapiens) (UniProt Q16566)
[33] = target: Phosphatidylinositol 4,5-bisphosphate 3-kinase catalytic subunit alpha isoform (Homo sapiens) (UniProt P42336)
[34] = test system: ALK tyrosine kinase receptor (Homo sapiens), Q9UM73 [C1156Y]
[35] = target: Insulin receptor-related protein (Homo sapiens) (UniProt P14616)
[36] = target: Calcium/calmodulin-dependent protein kinase kinase 2 (Homo sapiens) (UniProt Q96RR4)
Calcium/calmodulin-dependent protein kinase kinase 2 (Homo sapiens), sequence (Q96RR4 2-588 limits assumed): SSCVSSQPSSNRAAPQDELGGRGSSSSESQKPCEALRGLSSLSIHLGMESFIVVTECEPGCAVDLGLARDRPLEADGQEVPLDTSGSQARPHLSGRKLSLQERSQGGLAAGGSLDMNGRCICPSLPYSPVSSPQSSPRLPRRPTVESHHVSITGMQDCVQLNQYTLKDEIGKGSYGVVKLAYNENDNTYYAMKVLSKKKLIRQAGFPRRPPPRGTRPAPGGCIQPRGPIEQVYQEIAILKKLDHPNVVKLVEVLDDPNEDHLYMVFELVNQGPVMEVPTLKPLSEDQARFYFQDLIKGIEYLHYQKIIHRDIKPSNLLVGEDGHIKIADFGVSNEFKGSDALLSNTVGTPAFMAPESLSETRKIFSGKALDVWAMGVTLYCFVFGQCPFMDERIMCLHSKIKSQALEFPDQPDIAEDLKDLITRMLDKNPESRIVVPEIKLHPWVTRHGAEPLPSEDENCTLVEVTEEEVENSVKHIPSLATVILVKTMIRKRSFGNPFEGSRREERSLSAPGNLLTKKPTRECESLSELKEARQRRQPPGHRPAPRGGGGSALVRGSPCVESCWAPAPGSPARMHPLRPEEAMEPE

[37] = target: 5-hydroxytryptamine receptor 1D (Homo sapiens) (UniProt P28221); settings: Compound concentration 10.0 uM
[38] = target: Mitogen-activated protein kinase kinase kinase 19 (Homo sapiens) (UniProt Q56UN5)
[39] = target: Serine/threonine-protein kinase 16 (Homo sapiens) (UniProt O75716)
[40] = test system: Tyrosine-protein kinase ABL1 (Homo sapiens), P00519 [Q252H]
[41] = target: LIM domain kinase 2 (Homo sapiens) (UniProt P53671)
[42] = target: Calcium/calmodulin-dependent protein kinase type 1G (Homo sapiens) (UniProt Q96NX5)
[43] = target: Focal adhesion kinase 1 (Homo sapiens) (UniProt Q05397)
[44] = target: Serine/threonine-protein kinase Nek7 (Homo sapiens) (UniProt Q8TDX7)
[45] = target: 5-hydroxytryptamine receptor 6 (Homo sapiens) (UniProt P50406); settings: Compound concentration 10.0 uM
[46] = Compound concentration 1000.0 nM
[47] = Compound concentration 100.0 nM

Mast/stem cell growth factor receptor Kit (Homo sapiens), P10721 [V559D], sequence (P10721 whole entry V559D): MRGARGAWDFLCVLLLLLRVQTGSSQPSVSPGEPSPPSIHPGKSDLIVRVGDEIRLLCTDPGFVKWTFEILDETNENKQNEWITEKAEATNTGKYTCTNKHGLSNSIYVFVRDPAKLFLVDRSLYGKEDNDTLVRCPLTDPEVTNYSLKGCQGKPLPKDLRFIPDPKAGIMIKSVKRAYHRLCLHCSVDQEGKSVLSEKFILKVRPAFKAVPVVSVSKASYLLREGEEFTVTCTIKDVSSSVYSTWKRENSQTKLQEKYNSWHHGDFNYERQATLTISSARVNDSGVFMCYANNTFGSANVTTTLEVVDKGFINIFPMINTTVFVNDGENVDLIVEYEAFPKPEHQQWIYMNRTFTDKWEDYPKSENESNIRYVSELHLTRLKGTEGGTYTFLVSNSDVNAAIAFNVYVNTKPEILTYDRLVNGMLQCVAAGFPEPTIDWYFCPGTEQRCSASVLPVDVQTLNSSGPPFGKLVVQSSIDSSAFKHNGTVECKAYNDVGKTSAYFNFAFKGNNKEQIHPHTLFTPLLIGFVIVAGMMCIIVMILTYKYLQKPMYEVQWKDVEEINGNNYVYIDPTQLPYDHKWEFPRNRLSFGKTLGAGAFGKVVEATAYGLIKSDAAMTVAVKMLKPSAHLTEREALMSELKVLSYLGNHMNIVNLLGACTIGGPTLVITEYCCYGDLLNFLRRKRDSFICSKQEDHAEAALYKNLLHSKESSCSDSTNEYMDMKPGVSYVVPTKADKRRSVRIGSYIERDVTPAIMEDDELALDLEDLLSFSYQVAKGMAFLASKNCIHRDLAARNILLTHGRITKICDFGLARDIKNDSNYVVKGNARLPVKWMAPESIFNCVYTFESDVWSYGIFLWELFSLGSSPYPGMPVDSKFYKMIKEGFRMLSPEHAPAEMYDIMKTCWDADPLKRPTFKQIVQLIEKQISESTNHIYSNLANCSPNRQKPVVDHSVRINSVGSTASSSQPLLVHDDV

SMILES: CN(C)c1ncnc(-c2ccc3nc(Nc4cc(CN5CCN(C(=O)CC(F)(F)F)CC5)ccn4)[nH]c3c2)c1Cl [BAY-440]
- residual activity [1, 46]: 100%
- inhibition [2]: 33.7%
- residual activity [3, 46]: 63%
- residual activity [4, 46]: 75%
- residual activity [5, 46]: 96%
- residual activity [6, 46]: 100%
- residual activity [7, 46]: 95%
- residual activity [8, 46]: 100%
- residual activity [9, 46]: 85%
- residual activity [10, 46]: 100%
- residual activity [11, 46]: 80%
- residual activity [12, 46]: 100%
- residual activity [13, 46]: 44%
- inhibition [14]: -6.2%
- residual activity [15, 46]: 100%
- residual activity [16, 46]: 91%
- residual activity [17, 46]: 100%
- residual activity [18, 46]: 100%
- residual activity [19, 46]: 100%
- residual activity [20, 46]: 100%
- residual activity [21, 46]: 71%
- residual activity [22, 46]: 81%
- residual activity [23, 46]: 66%
- residual activity [24, 46]: 13%
- residual activity [25, 46]: 99%
- residual activity [26, 46]: 100%
- residual activity [27, 46]: 97%
- residual activity [28, 46]: 34%
- residual activity [29, 46]: 88%
- residual activity [30, 46]: 62%
- residual activity [31, 46]: 75%
- residual activity [32, 46]: 89%
- residual activity [33, 46]: 100%
- residual activity [34, 46]: 59%
- residual activity [35, 46]: 95%
- residual activity [36, 46]: 88%
- inhibition [37]: 19.5%
- residual activity [38, 46]: 15%
- residual activity [39, 46]: 100%
- residual activity [40, 46]: 29%
- residual activity [41, 46]: 100%
- residual activity [42, 46]: 100%
- residual activity [43, 46]: 100%
- residual activity [44, 46]: 100%
- inhibition [45]: 12.4%

SMILES: C[C@H](c1ccnc(Nc2nc3ccc(-c4cc(N(C)C)ncn4)cc3[nH]2)c1)N1CCN(C(=O)CC(F)(F)F)CC1 [BAY-985]
- residual activity [1, 47]: 75%
- inhibition [2]: 4.24%
- residual activity [3, 47]: 88%
- residual activity [4, 47]: 99%
- residual activity [5, 47]: 100%
- residual activity [6, 47]: 97%
- residual activity [7, 47]: 100%
- residual activity [8, 47]: 100%
- residual activity [9, 47]: 100%
- residual activity [10, 47]: 95%
- residual activity [11, 47]: 95%
- residual activity [12, 47]: 100%
- residual activity [13, 47]: 100%
- inhibition [14]: 24.3%
- residual activity [15, 47]: 96%
- residual activity [16, 47]: 94%
- residual activity [17, 47]: 86%
- residual activity [18, 47]: 100%
- residual activity [19, 47]: 100%
- residual activity [20, 47]: 100%
- residual activity [21, 47]: 100%
- residual activity [22, 47]: 100%
- residual activity [23, 47]: 100%
- residual activity [24, 47]: 9.9%
- residual activity [25, 47]: 82%
- residual activity [26, 47]: 77%
- residual activity [27, 47]: 89%
- residual activity [28, 47]: 40%
- residual activity [29, 47]: 88%
- residual activity [30, 47]: 100%
- residual activity [31, 47]: 100%
- residual activity [32, 47]: 100%
- residual activity [33, 47]: 100%
- residual activity [34, 47]: 100%
- residual activity [35, 47]: 100%
- residual activity [36, 47]: 77%
- inhibition [37]: 23.2%
- residual activity [38, 47]: 10%
- residual activity [39, 47]: 86%
- residual activity [40, 47]: 84%
- residual activity [41, 47]: 88%
- residual activity [42, 47]: 76%
- residual activity [43, 47]: 100%
- residual activity [44, 47]: 100%
- inhibition [45]: -4.38%
